Test results reported in ChEMBL document CHEMBL5579859, “Discovery of novel indazole derivatives as second-generation TRK inhibitors” (Eur J Med Chem, 2024).

What was measured:
[1] = target: High affinity nerve growth factor receptor (Homo sapiens, UniProt P04629, G595R); assay: Inhibition of TRKA G595R mutant (unknown origin) using TK as substrate incubated for 30 mins in presence of ATP by HTRF assay
MCF7 = assay: cells; conditions: Homo sapiens, MCF7, 72 h
Description: Antiproliferative activity against human MCF7 cells incubated for 72 hrs by CCK8 assay

BaF3 [2] = assay: cells; conditions: Mus musculus, BaF3, 72 h
Description: Antiproliferative activity against mouse BaF3 cells expressing TRKA G595R mutant incubated for 72 hrs by CCK8 assay

KM12 = assay: cells; conditions: Homo sapiens, KM12, 72 h
Description: Antiproliferative activity against human KM12 cells incubated for 72 hrs by CCK8 assay

BaF3 [3] = assay: cells; conditions: Mus musculus, BaF3, 72 h; remark: listed apart in the source
[4] = target: High affinity nerve growth factor receptor (Homo sapiens, UniProt P04629, G667C); assay: Inhibition of TRKA G667C mutant (unknown origin) using TK as substrate incubated for 30 mins in presence of ATP by HTRF assay
High affinity nerve growth factor receptor (Homo sapiens, UniProt P04629, G667C), sequence (P04629 33-796 G667C limits assumed): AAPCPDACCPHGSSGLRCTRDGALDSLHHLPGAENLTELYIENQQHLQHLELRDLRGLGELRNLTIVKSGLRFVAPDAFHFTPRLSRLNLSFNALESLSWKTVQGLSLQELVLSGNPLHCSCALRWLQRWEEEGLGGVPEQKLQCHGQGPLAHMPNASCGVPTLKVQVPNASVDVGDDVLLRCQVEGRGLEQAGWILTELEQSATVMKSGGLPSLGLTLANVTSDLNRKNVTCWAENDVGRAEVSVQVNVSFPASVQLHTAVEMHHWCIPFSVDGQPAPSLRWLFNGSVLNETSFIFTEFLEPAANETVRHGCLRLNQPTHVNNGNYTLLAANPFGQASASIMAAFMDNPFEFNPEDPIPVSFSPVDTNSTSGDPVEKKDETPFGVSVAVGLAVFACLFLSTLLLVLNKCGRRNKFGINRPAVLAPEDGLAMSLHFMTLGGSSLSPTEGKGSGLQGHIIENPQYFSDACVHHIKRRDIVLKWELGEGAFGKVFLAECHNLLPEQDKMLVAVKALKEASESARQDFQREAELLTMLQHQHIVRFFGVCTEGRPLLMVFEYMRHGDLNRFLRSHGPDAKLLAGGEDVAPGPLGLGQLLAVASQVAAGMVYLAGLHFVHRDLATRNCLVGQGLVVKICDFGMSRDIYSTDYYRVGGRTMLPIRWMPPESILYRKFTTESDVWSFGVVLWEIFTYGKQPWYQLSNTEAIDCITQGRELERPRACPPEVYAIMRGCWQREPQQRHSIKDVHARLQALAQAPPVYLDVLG

[5] = target: High affinity nerve growth factor receptor (Homo sapiens, UniProt P04629, F589L); assay: Inhibition of TRKA F589L mutant (unknown origin) using TK as substrate incubated for 30 mins in presence of ATP by HTRF assay
High affinity nerve growth factor receptor (Homo sapiens, UniProt P04629, F589L), sequence (P04629 33-796 F589L limits assumed): as the sequence (P04629 33-796 G667C limits assumed) above, with F557L, C635G counted along it

[6] = target: NT-3 growth factor receptor (Homo sapiens, UniProt Q16288); assay: Inhibition of TRKC (unknown origin) using TK as substrate incubated for 40 mins in presence of ATP by HTRF assay
NT-3 growth factor receptor, sequence (Q16288 whole entry): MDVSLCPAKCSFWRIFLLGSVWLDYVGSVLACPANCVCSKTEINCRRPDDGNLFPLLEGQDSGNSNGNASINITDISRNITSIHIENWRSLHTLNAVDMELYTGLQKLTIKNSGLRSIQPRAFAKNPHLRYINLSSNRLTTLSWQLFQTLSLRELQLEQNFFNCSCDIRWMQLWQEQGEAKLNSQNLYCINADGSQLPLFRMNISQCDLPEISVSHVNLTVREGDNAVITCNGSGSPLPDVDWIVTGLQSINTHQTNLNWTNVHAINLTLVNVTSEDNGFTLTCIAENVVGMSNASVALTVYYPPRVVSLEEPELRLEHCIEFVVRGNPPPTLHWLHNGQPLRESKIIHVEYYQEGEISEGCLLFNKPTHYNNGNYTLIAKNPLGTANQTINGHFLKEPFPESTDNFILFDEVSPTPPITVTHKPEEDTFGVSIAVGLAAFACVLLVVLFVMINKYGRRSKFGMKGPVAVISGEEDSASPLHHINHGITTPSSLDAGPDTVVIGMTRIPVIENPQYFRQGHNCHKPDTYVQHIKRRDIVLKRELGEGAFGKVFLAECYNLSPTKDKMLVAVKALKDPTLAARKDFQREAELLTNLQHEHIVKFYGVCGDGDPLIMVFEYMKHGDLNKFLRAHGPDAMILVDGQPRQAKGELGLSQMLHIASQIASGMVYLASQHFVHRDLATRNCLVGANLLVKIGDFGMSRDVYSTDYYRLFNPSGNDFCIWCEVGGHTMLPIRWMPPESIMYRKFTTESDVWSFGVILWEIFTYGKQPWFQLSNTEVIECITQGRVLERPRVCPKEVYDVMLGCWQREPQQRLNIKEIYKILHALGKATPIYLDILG

[7] = target: High affinity nerve growth factor receptor (Homo sapiens, UniProt P04629); assay: Inhibition of TRKA (unknown origin) using TK as substrate incubated for 30 mins in presence of ATP by HTRF assay
High affinity nerve growth factor receptor (Homo sapiens, UniProt P04629), sequence (P04629 whole entry): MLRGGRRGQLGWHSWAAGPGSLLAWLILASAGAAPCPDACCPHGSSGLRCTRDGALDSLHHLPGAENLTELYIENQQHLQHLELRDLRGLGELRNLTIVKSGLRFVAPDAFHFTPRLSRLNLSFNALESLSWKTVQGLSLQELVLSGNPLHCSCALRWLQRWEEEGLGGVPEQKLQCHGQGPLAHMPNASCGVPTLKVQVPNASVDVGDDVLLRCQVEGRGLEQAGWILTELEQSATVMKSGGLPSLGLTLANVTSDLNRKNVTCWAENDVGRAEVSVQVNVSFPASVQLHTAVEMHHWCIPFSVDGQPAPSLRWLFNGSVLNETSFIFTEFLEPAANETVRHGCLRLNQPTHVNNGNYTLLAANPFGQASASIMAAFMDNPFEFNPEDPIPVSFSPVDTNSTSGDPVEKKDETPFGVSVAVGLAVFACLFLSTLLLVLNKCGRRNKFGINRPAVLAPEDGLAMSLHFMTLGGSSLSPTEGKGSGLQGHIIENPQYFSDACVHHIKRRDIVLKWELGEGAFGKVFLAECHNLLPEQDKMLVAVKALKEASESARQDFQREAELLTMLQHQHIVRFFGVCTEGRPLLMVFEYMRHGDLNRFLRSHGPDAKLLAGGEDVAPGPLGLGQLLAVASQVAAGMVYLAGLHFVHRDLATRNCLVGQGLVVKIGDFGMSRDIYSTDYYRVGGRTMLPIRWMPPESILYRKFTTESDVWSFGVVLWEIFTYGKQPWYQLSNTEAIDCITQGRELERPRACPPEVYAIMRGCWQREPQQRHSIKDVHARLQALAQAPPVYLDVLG

High affinity nerve growth factor receptor (Homo sapiens, UniProt P04629, G595R), sequence (P04629 33-796 G595R limits assumed): as the sequence (P04629 33-796 G667C limits assumed) above, with G563R, C635G counted along it

Row | IC50 [1] | Structure (SMILES) | also measured
1 | 170 nM | COc1ccc(F)cc1CNc1ccc2[nH]nc(C#N)c2c1 | –
2 | 92 nM | CNC(=O)c1n[nH]c2ccc(NCc3cc(F)ccc3OC)cc12 | –
3 | 580 nM | COc1ccc(F)cc1CNc1ccc2[nH]nc(-n3cnc(C(F)(F)F)c3)c2c1 | –
4 | 4830 nM | COc1ccc(F)cc1CNc1ccc2[nH]nc(C(=O)NO)c2c1 | –
5 | 240 nM | CNC(=O)c1n[nH]c2ccc(NCc3cc(F)ccc3OC(C)C)cc12 | –
6 | 210 nM | CNC(=O)c1n[nH]c2ccc(NCc3cc(F)ccc3OC3CCOC3)cc12 (stereo unspecified) | –
7 | – | C[C@@H]1CCc2ncc(F)cc2[C@H]2CCCN2c2ccn3ncc(c3n2)C(=O)N1 [SELITRECTINIB] | IC50 (MCF7): > 10000 nM; IC50 (BaF3 [2]): 12 nM; IC50 (KM12): 6.8 nM; IC50 (BaF3 [3]): 113 nM
8 | 1170 nM | CNC(=O)c1n[nH]c2ccc(NCc3cc(F)ccc3OCCO)cc12 | –
9 | 19 nM | Fc1ccc(OCC(F)F)c(CNc2ccc3[nH]nc(-n4cncn4)c3c2)c1 | IC50 [4]: 25 nM; IC50 (MCF7): > 10000 nM; IC50 (BaF3 [2]): 54.5 nM; IC50 [5]: 1 nM; IC50 [6]: 2 nM; IC50 (KM12): 5.7 nM; IC50 [7]: 1 nM; IC50 (BaF3 [3]): 64.1 nM
10 | 33100 nM | COc1ccc(F)cc1CNc1ccc2[nH]nc(C(=O)N3CCC(F)(F)C3)c2c1 | –
11 | 200 nM | CNC(=O)c1n[nH]c2ccc(NCc3cc(F)ccc3OCCF)cc12 | –
12 | > 50000 nM | COc1ccc(F)cc1CNc1ccc2[nH]nc(C(=O)N3CCC(O)C3)c2c1 (stereo unspecified) | –
13 | 360 nM | COc1ccc(F)cc1CNc1ccc2[nH]nc(-c3cccc(F)c3)c2c1 | –
14 | 5700 nM | COc1ccc(F)cc1CNc1ccc2[nH]nc(-n3cc(C(F)(F)F)cn3)c2c1 | –
15 | 3650 nM | COc1ccc(F)cc1CNc1ccc2[nH]nc(C(=O)NC3CC3)c2c1 | –
16 | 290 nM | CNC(=O)c1n[nH]c2ccc(NCc3cc(F)ccc3OC3CCOCC3)cc12 | –
17 | 63 nM | Fc1ccc(OCC(F)F)c(CNc2ccc3[nH]nc(-n4ccnn4)c3c2)c1 | IC50 [4]: 61 nM; IC50 (MCF7): > 10000 nM; IC50 (BaF3 [2]): 132 nM; IC50 [5]: 2 nM; IC50 [6]: 4 nM; IC50 (KM12): 9.8 nM; IC50 [7]: 3 nM; IC50 (BaF3 [3]): 136 nM
18 | 350 nM | COc1ccc(F)cc1CNc1ccc2[nH]nc(-n3cc(F)cn3)c2c1 | –
19 | 30 nM | N#Cc1n[nH]c2ccc(NCc3cc(F)ccc3OCC(F)F)cc12 | IC50 [4]: 1200 nM; IC50 [5]: 10 nM; IC50 [6]: 3 nM; IC50 [7]: 32 nM
20 | 140 nM | CNC(=O)c1n[nH]c2ccc(NCc3cc(F)ccc3OCC(F)(F)F)cc12 | –
21 | 550 nM | COc1ccc(F)cc1CNc1ccc2[nH]nc(-n3cccn3)c2c1 | –
22 | 35 nM | Fc1ccc(OCC(F)F)c(CNc2ccc3[nH]nc(-c4cnoc4)c3c2)c1 | IC50 [4]: 49 nM; IC50 [5]: 8 nM; IC50 [7]: 5 nM
23 | 8590 nM | COc1ccc(F)cc1CNc1ccc2[nH]nc(C(=O)NCC(F)F)c2c1 | –
24 | 670 nM | COc1ccc(F)cc1CNc1ccc2[nH]nc(C(N)=O)c2c1 | –
25 | 110 nM | COc1ccc(F)cc1CNc1ccc2[nH]nc(-c3cn[nH]c3)c2c1 | –
26 | 1350 nM | COc1ccc(F)cc1CNc1ccc2[nH]nc(-c3ccc(F)cc3)c2c1 | –
27 | – | CNC(=O)c1n[nH]c2ccc(NCc3cc(F)ccc3OCC(F)F)cc12 | IC50 [6]: 3 nM
28 | 380 nM | CNC(=O)c1n[nH]c2ccc(NCc3cc(F)ccc3OC(F)F)cc12 | –
29 | 5580 nM | CNC(=O)c1n[nH]c2ccc(NCc3cc(F)ccc3P(C)(C)=O)cc12 | –
30 | 1120 nM | CNC(=O)c1n[nH]c2ccc(NCc3cc(F)ccc3S(C)(=O)=O)cc12 | –
